Measured values taken from US20060211748A1, “Sulphydryl compounds in combination with sulpha compounds” (priority 2002, published 2006).

Assays:
[1] = test system: ^51Cr-labelled erythrocytes; assay: Half-life of 51Cr-labelled erythrocytes challenged in vitro with DDS N-hydroxylamine and re-introduced to autologous rats; assay type: in vivo; settings: red cells incubated two hours with DDS N-hydroxylamine 0.05 to 0.5 millimolar with N-acetyl-L-cysteine 2 to 10 millimolar, reintroduced into autologous rat
Procedure: Blood is drawn from laboratory rats into heparinized tubes, washed using conventional methods, and resuspended in buffered saline solution. Red blood cells are labeled with ^51Cr as chromate using the CPD standard method known to those skilled in the art. After resuspension in isotonic saline, DDS N-hydroxylamine alone (control) or with N-acetyl-L-cysteine (treatment) are added at final concentrations of 0.05 to 0.5 millimolar and 2 millimolar to 10 millimolar, respectively, and incubated for two hours. A 0.5 milliliter sample of the washed and resuspended red blood cells is then reintroduced into the autologous animal. Half-life of the labeled erythrocytes is determined by blood sampling every two days and counting of radioactive decay in the sample using a gamma counter.

[2] = treatment of opportunistic infections associated with AIDS; cited from earlier work

| Half-life of ^51Cr-labelled erythrocytes [1] | Compound | Discontinuation of clinical use due to toxicity [2] |
| --- | --- | --- |
| able to preserve the normal half-life | CC(=O)N[C@@H](CS)C(=O)O [N-acetyl-L-cysteine] |  |
|  | Nc1ccc(S(=O)(=O)c2ccc(N)cc2)cc1 [DDS, 4,4′-diaminodiphenylsulphone] | about 25 % of patients |
